Experimental data reported in EP0550903A1, “Quinolone- and naphthyridone carboxylic acid derivatives as antibacterial agents” (BAYER AG, priority 1992, dated 1993).
Values after ≈ are worked out from the molar mass of the structure shown. Like-named read-outs stand apart in the source and are kept apart here.

Legend:
[1] = tested on: Staphylococcus aureus; experiment: Efficacy in Staph. aureus infection of the mouse; format: in vivo, Maus; details: mouse infected with Staphylococcus aureus
[2] = tested on: Bacteroides fragilis; experiment: MIC, agar dilution test (Multipoint-Inokulator Denley, Isosensitest-Agar); format: cell-based
[3] = tested on: Bact. thetaiotaomicron; experiment: as above; format: cell-based; details: Bacteroides thetaiotaomicron, DSM2079, Stamm DSM 2079, read-out: MHK-Werte
[4] = tested on: Clostridium perfringens; experiment: microbe, parasite or virus in culture; format: cell-based; details: read-out: MHK-Werte
[5] = DSM2151, Stamm DSM 2151, Isosensitest-Agar, read-out: MHK-Werte
[6] = Stamm ES 25, Isosensitest-Agar, read-out: MHK-Werte

Compound: CC(=O)CCN1CCO[C@H]2CN(c3c(F)cc4c(=O)c(C(=O)O)cn(C5CC5)c4c3F)C[C@H]21 (racemic) [Beispiel 31, 1-Cyclopropyl-6,8-difluor-1,4-dihydro-4-oxo-7-(cis-5-[3-oxo-1-butyl]-2-oxa-5,8-diazabicyclo[4.3.0]non-8-yl)-3-chinolincarbonsäure]
- Wirksamkeit in der Staph. aureus-Infektion an der Maus ([1]; p.o.): 10 mg/kg
- Wirksamkeit in der Staph. aureus-Infektion an der Maus ([1]; s.c.): 10 mg/kg

Compound: O=C(O)c1cn(C2CC2)c2c(Cl)c(N3C[C@@H]4CCCN[C@@H]4C3)c(F)cc2c1=O [A, 8-Chlor-1-cyclopropyl-7-([S,S]-2,8-diazabicyclo[4.3.0]non-8-yl)-6-fluor-1,4-dihydro-4-oxo-3-chinolincarbonsäure]
- MIC [2, 5]: 0.25 µg/mL (≈ 0.616 µM)
- MIC [2, 6]: 0.25 µg/mL (≈ 0.616 µM)
- MIC [3]: 0.5 µg/mL (≈ 1.23 µM)

Compound: CN1CCC2CN(c3c(F)cc4c(=O)c(C(=O)O)cn(C5CC5)c4c3Cl)CC21 (stereo not shown) [B]
- MIC [4]: 0.5 µg/mL (≈ 1.23 µM)
- MIC [2, 5]: 0.5 µg/mL (≈ 1.23 µM)
- MIC [2, 6]: 1 µg/mL (≈ 2.46 µM)
- MIC [3]: 2 µg/mL (≈ 4.93 µM)

Compound: CC(=O)CCN1CCC[C@H]2CN(c3c(F)cc4c(=O)c(C(=O)O)cn(C5CC5)c4c3F)C[C@H]21 [Beispiel 27, 1-Cyclopropyl-6,8-difluor-1,4-dihydro-4-oxo-7-([S,S]-2-[3-oxo-1-butyl]-2,8-diazabicyclo[4.3.0]non-8-yl)-3-chinolincarbonsäure]
- Wirksamkeit in der Staph. aureus-Infektion an der Maus ([1]; p.o.): 10 mg/kg
- Wirksamkeit in der Staph. aureus-Infektion an der Maus ([1]; s.c.): 2,5 mg/kg

Compound: CC(=O)CCN1CCC[C@H]2CN(c3c(F)cc4c(=O)c(C(=O)O)cn(C5CC5)c4c3Cl)C[C@H]21 [Beispiel 29A, 8-Chlor-1-cyclopropyl-6-fluor-1,4-dihydro-4-oxo-7-([S,S]-2-[3-oxo-1-butyl]-2,8-diazabicyclo[4.3.0]non-8-yl)-3-chinolincarbonsäure]
- Wirksamkeit in der Staph. aureus-Infektion an der Maus ([1]; p.o.): 5 mg/kg
- Wirksamkeit in der Staph. aureus-Infektion an der Maus ([1]; s.c.): 5 mg/kg

Compound: N#CCCN1CCC[C@H]2CN(c3c(F)cc4c(=O)c(C(=O)O)cn(C5CC5)c4c3Cl)C[C@H]21 [Beispiel 33, 8-Chlor-7-([S,S]-2-[2-cyanoethyl]-2,8-diazabicyclo[4.3.0]non-8-yl)-1-cyclopropyl-6-fluor-1,4-dihydro-4-oxo-3-chinolincarbonsäure]
- Wirksamkeit in der Staph. aureus-Infektion an der Maus ([1]; p.o.): 10 mg/kg
- Wirksamkeit in der Staph. aureus-Infektion an der Maus ([1]; s.c.): 5 mg/kg

Compound: COC(=O)C=C(C(=O)OC)N1CCC[C@H]2CN(c3c(F)cc4c(=O)c(C(=O)O)cn(C5CC5)c4c3Cl)C[C@H]21 [Beispiel 35, 8-Chlor-1-cyclopropyl-7-[2-(1,2-bis-methoxycarbonyl-vinyl)-1S,6S-2,8-diazabicyclo[4.3.0]non-8-yl]-6-fluor-1,4-dihydro-4-oxo-3-chinolincarbonsäure]
- Wirksamkeit in der Staph. aureus-Infektion an der Maus ([1]; p.o.): 2,5 mg/kg
- Wirksamkeit in der Staph. aureus-Infektion an der Maus ([1]; s.c.): 2,5 mg/kg

Compound: O=C(O)c1cn(C2CC2)c2cc(N3CCNCC3)c(F)cc2c1=O [Ciprofloxacin]
- MIC ([2]; DSM2151, read-out: MHK-Werte): 4 µg/mL (≈ 12.1 µM)
- MIC ([2]; read-out: MHK-Werte): 8 µg/mL (≈ 24.1 µM)
- MIC [3]: 8 µg/mL (≈ 24.1 µM)
- Wirksamkeit in der Staph. aureus-Infektion an der Maus ([1]; p.o.): 80 mg/kg
- Wirksamkeit in der Staph. aureus-Infektion an der Maus ([1]; s.c.): 80 mg/kg
